Converted amounts (≈) assume the structure as drawn.
What was measured:
Strep.haem. A 266 = assay: agar serial dilution test; format: cell-based, Streptococcus haemolyticus; conditions: Streptococcus; agar serial dilution, 24 hours, 37° C.; read-out: minimal inhibitory concentration (MIC)
Dipl.pneum. L 54 = assay: agar serial dilution test; format: cell-based, Diplococcus pneumoniae; conditions: Streptococcus pneumoniae; agar serial dilution, 24 hours, 37° C.; read-out: minimal inhibitory concentration (MIC)
Bac.Subt.ATCC 6633 = assay: agar serial dilution test; format: cell-based, Bacillus subtilis; conditions: Bacillus subtilis, ATCC6633, 24 h, agar serial dilution, 24 hours, 37° C.; read-out: minimal inhibitory concentration (MIC)
Pseud.aerug. H 10 = assay: agar serial dilution test; format: cell-based; conditions: agar serial dilution, 24 hours, 37° C.; read-out: minimal inhibitory concentration (MIC)
Haem.infl. A 1030 = assay: micro serial dilution test; format: cell-based; conditions: 18 h, micro serial dilution (in brackets), about 18 hours, 30° C. or 37° C.; read-out: minimal inhibitory concentration (MIC)
Past.multo. A 723 = assay: agar serial dilution test; format: cell-based, Pasteurella multocida; conditions: Pasteurella multocida; agar serial dilution, 24 hours, 37° C.; read-out: minimal inhibitory concentration (MIC)
Esch.coli U 20 = assay: agar serial dilution test; format: cell-based, Escherichia coli; conditions: Escherichia coli, U20; agar serial dilution, 24 hours, 37° C.; read-out: minimal inhibitory concentration (MIC)
Bruc.melit. A 488 = assay: microbe, parasite or virus in culture; format: cell-based; conditions: Brucella melitensis, 24 h, read-out: minimal inhibitory concentration (MIC)
Staph.aureus A 2000 [1] = assay: agar serial dilution test; format: cell-based, Staphylococcus aureus; conditions: Staphylococcus aureus, A2000, 24 h, agar serial dilution, 24 hours, 37° C.; read-out: minimal inhibitory concentration (MIC)
Prot.morg. 2241 = assay: agar serial dilution test; format: cell-based; conditions: 24 h, agar serial dilution, 24 hours, 37° C.; read-out: minimal inhibitory concentration (MIC)
Pseud.aerug. 2396 = assay: agar serial dilution test; format: cell-based; conditions: agar serial dilution, 24 hours, 37° C.; read-out: minimal inhibitory concentration (MIC)
Kleb.pneum. A 809 = assay: agar serial dilution test; format: cell-based, Klebsiella pneumoniae; conditions: Klebsiella pneumoniae; agar serial dilution, 24 hours, 37° C.; read-out: minimal inhibitory concentration (MIC)
Strep. faec. L 80 = assay: agar serial dilution test; format: cell-based, Streptococcus faecalis; conditions: Enterococcus faecalis; agar serial dilution, 24 hours, 37° C.; read-out: minimal inhibitory concentration (MIC)
Salm.dubl. P 43 = assay: agar serial dilution test; format: cell-based, Salmonella dublin; conditions: Salmonella enterica; agar serial dilution, 24 hours, 37° C.; read-out: minimal inhibitory concentration (MIC)
Staph.aureus A 2000 [2] = assay: micro serial dilution test; format: cell-based, Staphylococcus aureus; conditions: Staphylococcus aureus, A2000, 18 h, micro serial dilution (in brackets), about 18 hours, 30° C. or 37° C.; read-out: minimal inhibitory concentration (MIC)
Salm.typh. R 127 = assay: agar serial dilution test; format: cell-based; conditions: 24 h, 37° C., read-out: minimal inhibitory concentration (MIC)
Staph.aureus A 321 = assay: agar serial dilution test; format: cell-based, Staphylococcus aureus; conditions: Staphylococcus aureus, A321, 24 h, agar serial dilution, 24 hours, 37° C.; read-out: minimal inhibitory concentration (MIC)
Staph.aureus A 355 [3] = assay: agar serial dilution test; conditions: Staphylococcus aureus, A355, 24 h, read-out: minimal inhibitory concentration (MIC), agar serial dilution, 24 hours, 37° C.; penicillinase-producing strain
Prot.rettg. A 821 = assay: agar serial dilution test; format: cell-based, Proteus rettgeri; conditions: Providencia rettgeri, 24 h, agar serial dilution, 24 hours, 37° C.; read-out: minimal inhibitory concentration (MIC)
Staph.aureus A 2001 [4] = assay: agar serial dilution test; format: cell-based, Staphylococcus aureus; conditions: Staphylococcus aureus, A2001, 24 h, agar serial dilution, 24 hours, 37° C.; read-out: minimal inhibitory concentration (MIC)
Staph.aureus A 355 [5] = assay: micro serial dilution test; format: cell-based, Staphylococcus aureus; conditions: Staphylococcus aureus, A355; micro serial dilution (in brackets), about 18 hours, 30° C. or 37° C.; penicillinase-producing strain; read-out: minimal inhibitory concentration (MIC)
Shig.equir. T 3 = assay: agar serial dilution test; format: cell-based; conditions: 24 h, 37° C., read-out: minimal inhibitory concentration (MIC)
Prot.mirab. A 1200 = assay: agar serial dilution test; format: cell-based, Proteus mirabilis; conditions: Proteus mirabilis, 24 h, agar serial dilution, 24 hours, 37° C.; read-out: minimal inhibitory concentration (MIC)
[6] = tested on: Pseud.aerug. Wyeth A 1058; assay: agar serial dilution test; format: cell-based; conditions: agar serial dilution, 24 hours, 37° C.; read-out: minimal inhibitory concentration (MIC)
Staph.aureus A 2001 [7] = assay: micro serial dilution test; format: cell-based, Staphylococcus aureus; conditions: Staphylococcus aureus, A2001, 18 h, micro serial dilution (in brackets), about 18 hours, 30° C. or 37° C.; read-out: minimal inhibitory concentration (MIC)
Prot.mirab. H 3 = assay: agar serial dilution test; format: cell-based, Proteus mirabilis; conditions: Proteus mirabilis; agar serial dilution, 24 hours, 37° C.; read-out: minimal inhibitory concentration (MIC)
Prot.mirab. L 93 = assay: agar serial dilution test; format: cell-based, Proteus mirabilis; conditions: Proteus mirabilis; agar serial dilution, 24 hours, 37° C.; read-out: minimal inhibitory concentration (MIC)

Work on `COCc1noc(CC(=O)N[C@@H]2C(=O)N3[C@@H]2SC(C)(C)[C@@H]3C(=O)O)n1` [Compound A, 6-[(3-methoxymethyl-1,2,4-oxadiazol-5-yl)-acetamido]-penicillanic acid] yielded an MIC (Strep.haem. A 266) of 0.03 µg/mL (≈ 0.081 µM), an MIC (Dipl.pneum. L 54) of 0.25 µg/mL (≈ 0.675 µM) and an MIC (Bac.Subt.ATCC 6633) of 0.06 µg/mL (≈ 0.162 µM). The MIC (Pseud.aerug. H 10) was greater than 100 µg/mL, the MIC (Haem.infl. A 1030) was 4 µg/mL (≈ 10.8 µM) and the MIC (Past.multo. A 723) was 1 µg/mL (≈ 2.7 µM). It also gave an MIC (Esch.coli U 20) of 50 µg/mL (≈ 135 µM), an MIC (Bruc.melit. A 488) of 0.5 µg/mL (≈ 1.35 µM) and an MIC (Staph.aureus A 2000 [1]) of 6 µg/mL (≈ 16.2 µM). It also gave an MIC (Prot.morg. 2241) greater than 100 µg/mL, an MIC (Pseud.aerug. 2396) greater than 100 µg/mL and an MIC (Kleb.pneum. A 809) greater than 100 µg/mL. For the same compound, the MIC (Strep. faec. L 80) was 6 µg/mL (≈ 16.2 µM), the MIC (Salm.dubl. P 43) was 12.5 µg/mL (≈ 33.7 µM) and the MIC (Staph.aureus A 2000 [2]) was 90 µg/mL (≈ 243 µM). It also gave an MIC (Salm.typh. R 127) of 25 µg/mL (≈ 67.5 µM), an MIC (Staph.aureus A 321) of 0.5 µg/mL (≈ 1.35 µM) and an MIC (Staph.aureus A 355 [3]) of 6 µg/mL (≈ 16.2 µM). The MIC (Prot.rettg. A 821) was 6 µg/mL (≈ 16.2 µM), the MIC (Staph.aureus A 2001 [4]) was 1.5 µg/mL (≈ 4.05 µM) and the MIC (Staph.aureus A 355 [5]) was 60 µg/mL (≈ 162 µM). The MIC (Shig.equir. T 3) was 1.5 µg/mL (≈ 4.05 µM), the MIC (Prot.mirab. A 1200) was 100 µg/mL (≈ 270 µM) and the MIC [6] was greater than 100 µg/mL. The MIC (Staph.aureus A 2001 [7]) was 3.7 µg/mL (≈ 9.99 µM), the MIC (Prot.mirab. H 3) was greater than 100 µg/mL and the MIC (Prot.mirab. L 93) was 12.5 µg/mL (≈ 33.7 µM).

`CC(=O)OCC1=C(C(=O)O)N2C(=O)[C@@H](NC(=O)C(c3ccccc3)c3nc(C)no3)[C@H]2SC1` (stereo partly drawn) [Compound B, 7-[α-phenyl-(3-methyl-1,2,4-oxadiazol-5-yl)-acetamido]-3-acetoxymethyl-3-cephem-4-carboxylic acid] gave an MIC (Strep.haem. A 266) of 0.5 µg/mL (≈ 1.06 µM), an MIC (Dipl.pneum. L 54) of 1 µg/mL (≈ 2.12 µM) and an MIC (Bac.Subt.ATCC 6633) of 0.25 µg/mL (≈ 0.529 µM). For the same compound, the MIC (Pseud.aerug. H 10) was greater than 100 µg/mL, the MIC (Haem.infl. A 1030) was 1.2 µg/mL (≈ 2.54 µM) and the MIC (Past.multo. A 723) was 0.5 µg/mL (≈ 1.06 µM). It also gave an MIC (Esch.coli U 20) greater than 100 µg/mL, an MIC (Bruc.melit. A 488) of 1.5 µg/mL (≈ 3.17 µM) and an MIC (Staph.aureus A 2000 [1]) of 1.5 µg/mL (≈ 3.17 µM). For the same compound, the MIC (Prot.morg. 2241) was greater than 100 µg/mL, the MIC (Pseud.aerug. 2396) was greater than 100 µg/mL and the MIC (Kleb.pneum. A 809) was 6 µg/mL (≈ 12.7 µM). The MIC (Strep. faec. L 80) was 50 µg/mL (≈ 106 µM), the MIC (Salm.dubl. P 43) was greater than 100 µg/mL and the MIC (Staph.aureus A 2000 [2]) was 1.2 µg/mL (≈ 2.54 µM). The MIC (Salm.typh. R 127) was greater than 100 µg/mL, the MIC (Staph.aureus A 321) was 0.5 µg/mL (≈ 1.06 µM) and the MIC (Staph.aureus A 355 [3]) was 1.5 µg/mL (≈ 3.17 µM). For the same compound, the MIC (Prot.rettg. A 821) was 3 µg/mL (≈ 6.35 µM), the MIC (Staph.aureus A 2001 [4]) was 1.5 µg/mL (≈ 3.17 µM) and the MIC (Staph.aureus A 355 [5]) was 1.2 µg/mL (≈ 2.54 µM). For the same compound, the MIC (Shig.equir. T 3) was greater than 100 µg/mL, the MIC (Prot.mirab. A 1200) was greater than 100 µg/mL and the MIC [6] was greater than 100 µg/mL. For the same compound, the MIC (Staph.aureus A 2001 [7]) was 1.2 µg/mL (≈ 2.54 µM), the MIC (Prot.mirab. H 3) was greater than 100 µg/mL and the MIC (Prot.mirab. L 93) was 25 µg/mL (≈ 52.9 µM).

For `CC1=C(C(=O)O)N2C(=O)[C@@H](NC(=O)Cc3nc(Cc4ccccc4)no3)[C@H]2SC1` [Example 7, 7-[(3-benzyl-1,2,4-oxadiazol-5-yl)-acetamido]-desacetoxycephalosporanic acid], the MIC (Strep.haem. A 266) was 25 µg/mL (≈ 60.3 µM), the MIC (Dipl.pneum. L 54) was 4 µg/mL (≈ 9.65 µM) and the MIC (Bac.Subt.ATCC 6633) was 3 µg/mL (≈ 7.24 µM). For the same compound, the MIC (Pseud.aerug. H 10) was greater than 100 µg/mL, the MIC (Haem.infl. A 1030) was 30 µg/mL (≈ 72.4 µM) and the MIC (Past.multo. A 723) was 25 µg/mL (≈ 60.3 µM). It also gave an MIC (Esch.coli U 20) greater than 100 µg/mL, an MIC (Bruc.melit. A 488) of 25 µg/mL (≈ 60.3 µM) and an MIC (Staph.aureus A 2000 [1]) of 25 µg/mL (≈ 60.3 µM). It also gave an MIC (Prot.morg. 2241) greater than 100 µg/mL, an MIC (Pseud.aerug. 2396) greater than 100 µg/mL and an MIC (Kleb.pneum. A 809) of 100 µg/mL (≈ 241 µM). For the same compound, the MIC (Strep. faec. L 80) was 100 µg/mL (≈ 241 µM), the MIC (Salm.dubl. P 43) was 100 µg/mL (≈ 241 µM) and the MIC (Staph.aureus A 2000 [2]) was 4 µg/mL (≈ 9.65 µM). For the same compound, the MIC (Salm.typh. R 127) was greater than 100 µg/mL, the MIC (Staph.aureus A 321) was 3 µg/mL (≈ 7.24 µM) and the MIC (Staph.aureus A 355 [3]) was 100 µg/mL (≈ 241 µM). The MIC (Prot.rettg. A 821) was greater than 100 µg/mL, the MIC (Staph.aureus A 2001 [4]) was 6 µg/mL (≈ 14.5 µM) and the MIC (Staph.aureus A 355 [5]) was 8 µg/mL (≈ 19.3 µM). The MIC (Shig.equir. T 3) was greater than 100 µg/mL, the MIC (Prot.mirab. A 1200) was greater than 100 µg/mL and the MIC [6] was greater than 100 µg/mL. It also gave an MIC (Staph.aureus A 2001 [7]) of 5 µg/mL (≈ 12.1 µM), an MIC (Prot.mirab. H 3) greater than 100 µg/mL and an MIC (Prot.mirab. L 93) greater than 100 µg/mL.

— patent publication US4160829A, “Antibacterial 1,2,4-oxadiazolylacetamido cephalosporins” (Gist-Brocades N.V., priority 1972, dated 1979)
